Test results: US9205124B2, “Compounds for enzyme inhibition” (Onyx Therapeutics, Inc., priority 2005, dated 2015)

Test system: proteasome CT-L activity
Assay: Proteasome CT-L activity in blood lysates of mice one hour after oral dosing (LLVY-AMC cleavage)
Type: in vivo
Details: 20 mg/kg PO, one hour post-dosing, vs vehicle-dosed cohort
Experimental: Compounds were formulated in 10% PS80/NaCitrate (pH 3) vehicle and administered to mice orally (PO) (3 animals/cohort). One hour post-dosing, the animals were sacrificed and the following tissues harvested: blood, brain, adrenal gland, heart and liver. Whole blood (˜200 μl) was washed twice with PBS and lysed by hypotonic shock (300 μl 50 mM Tris pH 8, 5 mM EDTA). Blood lysates were stored at −80° C. until assayed. Blood lysates were clarified by centrifugation in a microcentrifuge. The CT-L specific activity of proteasome in each lysate was evaluated by determining: a) the protein concentration by modified Bradford assay with bovine gamma globulin as a standard; and b) the rate of cleavage of the fluorogenic proteasome substrate LLVY-AMC. The percent proteasome activity for the analog-treated animals was calculated by dividing of the average specific activity for each analog-dosed cohort by the average specific activity of the vehicle-dosed cohort. Percent proteasome inhibition was calculated by subtracting percent proteasome activity from 100.

Row | SMILES | proteasome CT-L inhibition [%]
1 | COC[C@H](NC(=O)c1cc(C)no1)C(=O)N[C@@H](COC)C(=O)N[C@@H](CC(C)C)C(=O)[C@@]1(C)CO1 [Compound (085)] | > 50
2 | COC[C@H](NC(=O)c1ccon1)C(=O)N[C@@H](COC)C(=O)N[C@@H](CC(C)C)C(=O)[C@@]1(C)CO1 [Compound (083)] | > 80
3 | Cc1cc(C(=O)N[C@@H](Cc2ccccn2)C(=O)N[C@@H](Cc2ccccc2)C(=O)N[C@@H](CC(C)C)C(=O)[C@@]2(C)CO2)no1 [Compound (055)] | > 80
4 | COC[C@H](NC(=O)c1cc(C)on1)C(=O)N[C@H](C(=O)N[C@@H](CC(C)C)C(=O)[C@@]1(C)CO1)C(C)C [Compound (029)] | > 70
5 | COC[C@H](NC(=O)c1cc(C)on1)C(=O)N[C@@H](Cc1cscn1)C(=O)N[C@@H](CC(C)C)C(=O)[C@@]1(C)CO1 [Compound (039)] | > 75

Same assay, conditions: 40 mg/kg PO, one hour post-dosing, vs vehicle-dosed cohort

Row | SMILES | proteasome CT-L inhibition [%]
6 | CC(C)C[C@H](NC(=O)[C@H](Cc1ccccc1)NC(=O)[C@@H](NC(=O)c1cc(CN2CCOCC2)on1)C(C)C)C(=O)[C@@]1(C)CO1 [Compound (061)] | > 80
7 | COC[C@H](NC(=O)c1cc(C)on1)C(=O)N[C@@H](Cc1ccccc1)C(=O)N[C@@H](CC(C)C)C(=O)[C@@]1(C)CO1 [Compound (010)] | > 90
8 | COCC[C@H](NC(=O)c1cc(C(C)C)on1)C(=O)N[C@@H](Cc1ccccc1)C(=O)N[C@@H](CC(C)C)C(=O)[C@@]1(C)CO1 [Compound (068)] | > 70
9 | CC(C)C[C@H](NC(=O)c1cc(CN2CCOCC2)on1)C(=O)N[C@@H](Cc1ccccc1)C(=O)N[C@@H](CC(C)C)C(=O)[C@@]1(C)CO1 [Compound (023)] | > 80
